Assay results taken from ChEMBL document CHEMBL1158837, “Cyclohexadepsipeptides from the insect pathogenic fungus Hirsutella nivea BCC 2594” (J Nat Prod, 2005).
In brackets after ≈: the same amount, converted by molar mass. Activity calls are given as the source filed them. The rule behind the calls is not given here. Square brackets hold non-standard residues; d marks the D form. Peptide text beside a SMILES is read from it. Hica(2S) = CC(C)C[C@H](O)C(=O)O; NMeL = CN[C@@H](CC(C)C)C(=O)O; Hiv = CC(C)[C@H](O)C(=O)O

Key:
[1] = tested on: Mycobacterium tuberculosis; experiment: Antitubercular activity against Mycobacterium tuberculosis H37Ra after 4 days by microplate alamar blue assay; assay type: functional; conditions: 96 h
Plasmodium falciparum [2] = experiment: Antimalarial activity against multidrug-resistant Plasmodium falciparum K1 at 20 ug/ml after 42 hrs as reduced [3H]hypoxanthine uptake; assay type: functional, organism-based
Vero = experiment: Cytotoxicity against african green monkey Vero cells at 50 ug/ml by SRB assay; assay type: cell-based; conditions: chlorocebus sabaeus
Plasmodium falciparum [3] = experiment: Antimalarial activity against multidrug-resistant Plasmodium falciparum K1 after 42 hrs by [3H]hypoxanthine uptake; assay type: functional, organism-based

Structure (SMILES) | MIC [1] [µg/mL] | Activity (Plasmodium falciparum [2]) | Activity (Vero) | IC50 (Plasmodium falciparum [3]) [µg/mL]
CC(C)C[C@@H]1OC(=O)[C@H](C(C)C)OC(=O)[C@H](CO)NC(=O)[C@H]([C@@H](C)O)NC(=O)[C@H](CC(C)C)N(C)C(=O)[C@H](Cc2ccccc2)NC1=O [HIRSUTATIN A] (HELM PEPTIDE1{F.[meL].T.S.[CC(C)[C@H](O[*:1])C(=O)[*:2]].[CC(C)C[C@H](O[*:1])C(=O)[*:2]]}$PEPTIDE1,PEPTIDE1,1:R1-6:R2$$$V2.0) | 50 (≈ 73.9 µM) | inactive | Non-toxic | 
COc1ccc(C[C@@H]2NC(=O)[C@H](CC(C)C)OC(=O)[C@H](C(C)C)OC(=O)[C@H](CO)NC(=O)[C@H]([C@@H](C)O)NC(=O)[C@H](CC(C)C)N(C)C2=O)cc1 [HIRSUTATIN B] (cyclo([Hica(2S)]Y(Me)[NMeL]TS[Hiv])) | 50 (≈ 70.7 µM) |  | Non-toxic | 5.8 (≈ 8.21 µM)
